Source: patent US8637310B2, “Use of a rock inhibitor to sustain primary human keratinocytes in a proliferative state” (The United States of America, as represented by the …, priority 2008, dated 2014)

Key:
W12 cells (20863 clone) = test: Growth of CIN1-derived cell line W12; assay type: cell-based, human; conditions: 10 μM Y-27632; 44 days; FIG. 7
Procedure: The 9E and […] (20863 clone) cell lines were cultured in F-media on irradiated J2 feeder cells. For the Y-27632 experiments they were cultured in F-medium with or without 10 μM Y-27632 and continually passed for the times indicated.

keratinocytes = test: Organotypic raft culture (differentiation, stratification); assay type: cell-based, human
Procedure: Organotypic cultures were generated as described previously with modifications. (Banerjee et al., Methods Mol. Med. 119: 187-202, 2005). Briefly, 1×10^5 keratinocytes were seeded onto a rat tail type 1 collagen dermal equivalent containing 1−2×10^6 J2 3T3 feeder cells. The rafts were lifted onto stainless steel grids and were fed by diffusion from below with raft medium [3:1 (v/v) DMEM-F-12 (Ham), 10% FBS, 0.4 μg/ml hydrocortisone, 0.1 nM cholera toxin, and 5 μg/ml transferring]. Raft cultures were allowed to stratify and differentiate for 11-17 days. The collagen-epithelial rafts were fixed in formalin for 4 hours, paraffin embedded, sectioned and stained with hematoxylin and eosin (H&E) or by immunofluorescence as described in Pei et al. (Methods Mol. Med. 119: 49-59, 2005). Monoclonal antibody against anti-keratin 14 (K14) (Ab-1) was from Thermo Fisher Scientific, Fremont, Calif. Goat polyclonal antiserum against Filaggrin (N-20) and rabbit polyclonal antiserum against involucrin (H-120) were from Santa Cruz Biotechnology.

hTERT mRNA = test: Real time QRT-PCR of hTERT mRNA; assay type: cell-based, human
Procedure: Total cellular RNA was isolated with TRIZol™ reagent (Invitrogen, Carlsbad, Calif.) and treated with DNA-free kit (Ambion, Austin, Tex.). First-strand cDNA was synthesized from 8 μg of total cellular RNA using the Superscript III First-Strand Synthesis System (Invitrogen, Carlsbad, Calif.). RNase H-treated cDNA from 20 ng RNA was amplified by quantitative real time PCR using the Taqman Gene Expression Assay for hTERT (Assay ID: Hs00972646_m1, Applied Biosystems) spanning exons 14 and 15 and human RPLP0 (large ribosomal protein) endogenous control, VIC/MGB Probe, primer limited (Applied Biosystems). All samples were run in triplicate using the ABI 7900HT system and the amount of product was calculated with reference to standard curves generated by 4-fold serial dilutions of a mixed set of cDNAs with high telomerase expression. Values were adjusted relative to the level of RPO transcripts.

foreskin keratinocytes = test: Foreskin keratinocytes grown without fibroblast feeder cells, on plastic, serum-free medium; assay type: cell-based, human; conditions: no fibroblast feeder cells
Procedure: Culturing keratinocytes in the presence of fibroblast feeder cells increases the lifespan of keratinocytes (Fu et al., Cancer Res. 63: 7815-7824, 2003; Rheinwald et al., Mol. Cell Biol. 22: 5157-5172, 2002) and might contribute to the observed immortalization by Y-27632. Therefore, the effect of Y-27632 on foreskin keratinocytes grown in the absence of fibroblast feeder cells, cultured on plastic and in serum-free medium was analyzed. […] Therefore, co-culture with feeder fibroblasts is required in concert with ROCK inhibition to immortalize keratinocytes.

Myc = test: Immunodetection of Myc; assay type: cell-based, human
Procedure: Proteins were extracted in 2% sodium dodecyl sulfate (SDS), 50 mM Tris-HCl (pH 6.8), 10% glycerol supplemented with inhibitors Complete and PhosphoSTOP (Roche, Indianapolis, Ind.). Protein samples were resolved on NuPage gels, electrotransferred to Immobilon-P membrane (Millipore, Billerica, Mass.), and probed with the relevant antibodies before detection by chemiluminescence. Monoclonal antibody against p53 (DO-1) was obtained from Santa Cruz Biotechnology (Santa Cruz, Calif.). Monoclonal antibody against α-tubulin (B-5-1-2) was obtained from Sigma-Aldrich. Polyclonal antibodies against Myc (N-262), p21 (C-19), and p16 (C-20) were obtained from Santa Cruz Biotechnology.

[1] = tested on: human foreskin keratinocytes (HFK); test: Long-term culture / immortalization of primary human foreskin keratinocytes on irradiated J2 feeder cells; assay type: cell-based
Procedure: Primary human foreskin keratinocytes (HFKs) were isolated and pooled from neonatal human foreskins from seven donors and grown in F medium (3: 1(v/v) F-12 Nutrient Mixture: DMEM, 5% FBS, 0.4 μg/ml hydrocortisone, 5 μg/ml insulin, 8.4 ng/ml cholera toxin, 10 ng/ml EGF, and 24 μg/ml adenine) (Jeon et al., Proc. Natl. Acad. Sci. USA 92:1654-1658, 1995) in the presence of irradiated J2 feeder cells. HFKs were divided into 10 cm plates, containing F-media with or without the addition of 10 μM Y-27632 (Alexis Biochemicals, San Diego, Calif.).
Human foreskin keratinocytes (HFKs) were isolated from pools of at least seven neonatal foreskins and grown in 154 medium supplemented with Human
Keratinocyte Growth Supplement and Gentamicin/Amphotericin (Invitrogen, Carlsbad, Calif.) or in F medium [3:1 (v/v) F-12 (Ham)-DMEM, 5% FBS, 0.4 μg/ml hydrocortisone, 5 μg/ml insulin, 8.4 ng/ml cholera toxin, 10 ng/ml EGF, 24 μg/ml adenine, 100 U penicillin, 100 μg/ml streptomycin (Invitrogen, cat no. 15140-148)] in the presence of irradiated 3T3 J2 feeder cells (Jeon et al., J. Virol. 69: 2989-2997, 1995).
The HPV18 cell line was established by introducing the HPV18 genome into primary HFKs using the Amaxa human keratinocyte nucleofection system. Primary human cervical keratinocytes (HCKs), human vaginal keratinocytes (HVKs), the HPV18 cell lines and the HPV31 positive cell line (CIN-612 9E) were grown in the presence or absence of 10 μM Y-27632 (Alexis Biochemicals), as indicated. Cells were subcultured by removing the fibroblast feeder cells with versene and keratinocytes were collected by trypsinization. At each pass, 2×10^5 cells were plated on a 10 cm plate of J2 feeder cells. Population doubling was calculated as: PD=3.32(log(# cells harvested/# cells seeded)). Immunodetection

[2] = 10 μM Y-27632, Example 2, FIG. 14

## CC(N)[C@H]1CC[C@H](C(=O)Nc2ccncc2)CC1 (single isomer, unassigned; (+)) [Y-27632, (+)-trans-N-(4-Pyridyl)-4-(1-aminoethyl)-cyclohexanecarboxamide]
W12 cells (20863 clone)
  growth rate: no differences in growth rate were observed
keratinocytes; 10 μM Y-27632 added to the organotypic raft culture medium
  differentiation and stratification: no differentiation or stratification were observed
keratinocytes; cells cultured in Y-27632 for 18 passages and late pass, raft media without Y-27632
  formation of stratified epithelium: could also produce a stratified epithelium in organotypic culture
keratinocytes; raft tissue from Y-27632-treated cells, immunofluorescence
  expression of keratin 14, involucrin and filaggrin: expressed these differentiation markers in the appropriate layer
hTERT mRNA; by passage 34 in Y-27632
  level of hTERT mRNA versus HPV18-immortalized keratinocytes: comparable to those in HPV18-immortalized keratinocytes
hTERT mRNA; foreskin keratinocytes with passage in Y-27632, FIG. 11A
  level of hTERT mRNA: increased with passage
Foreskin keratinocytes
  proliferation in the absence of feeder cells: somewhat increased proliferation
Foreskin keratinocytes; repeated experiments
  bypass of senescence in the absence of feeder cells: did not bypass senescence
Myc; immediately after culture with Y-27632, HFK, HCK, HVK, FIG. 12A
  Myc protein levels: induced transiently
Myc; very late passages (p107), FIG. 16
  level of Myc: equivalent to that of an HPV31-containing cell line
[1]; 10 μM Y-27632, Example 1
  continued division / growth rate beyond senescence of untreated cells (about 15 passages): continued to divide without any decrease in growth rate
  number of times treated cells were passed: at least 82 times
  proliferation rate versus untreated cells: proliferated at a rate that exceeded the untreated cells almost immediately
  time in continuous culture: over 10 months
[1]; [2]
  passages in culture: up to 150 passages
  period of culture: 500 days
[1]; 10 μM Y-27632, FIG. 9
  bypass of senescence: efficiently bypassed senescence with no observed decline in growth rate
  cellular proliferation: dramatic increase in cellular proliferation
[1]; +Y-27632 (10 μM), HFK strain b
  population doubling (PD) to which cells were cultured, considered to be immortal: PD199
[1]; withdrawn at passage 48, after 196 days in culture
  growth after withdrawal of Y-27632: continued to grow unchecked with only a gradual slowing in the rate of population doubling
